From patent US20260174674A1, “INCOMPLETE AUTOPHAGY INDUCTION FOR THE TREATMENT OF CANCER” (Northwestern University, priority 2022, published 2026)

Assays:
[1] = tested on: brain metastases; settings: added to whole-brain radiation, cited from earlier work
[2] = cited from earlier work
[3] = tested on: BT-474Br, a HER2-positive BCBM cell line; test: CNS drug screen, CellTiter-Glo cell viability; assay type: cell-based; settings: 25 μM, 72 hours, Cell Titer Glo
Protocol: (§1) The Prestwick CNS Drug Library of 320 CNS compounds was purchased from Prestwick Chemical Libraries for screening. Cells were seeded at a density of 5000 cells/well in clear, flatbottomed, black-walled, 96-well plates. Each compound from the library was added at a final concentration of 25 μM per well 1 day after seeding of cells. After three days of treatment, cell viability was measured using CellTiter-Glo® Luminescent Cell Viability Assay (Promega) according to the manufacturer's instructions.
A blinded screen was conducted on a drug library comprising 320 structurally diverse drugs that are FDA approved, blood brain barrier (BBB) permeable, and known for their pharmacological effects on the CNS to identify potential hits for therapeutic intervention against brain metastases. Using BT-474Br, a HER2-positive BCBM cell line, the efficacy of the 320 compounds were screened at a standard concentration of 25 μM. After 72 hours of treatment, a cell viability assay was performed using Cell Titer Glo to determine the number of viable, metabolically active cells in culture. The screen yielded five different therapeutic agents that caused a vast reduction (>95%) in cell viability in vitro.

[4] = tested on: HCC1954; test: CNS drug screen, cell viability, trastuzumab-resistant line; assay type: cell-based; settings: 25 μM
Protocol: as §1
HER2-positive breast cancer has the greatest risk for intracranial-specific metastases. When metastatic cancer cells colonize the brain, they develop resistance to systemic therapies, such as trastuzumab. For this reason, another blinded screen was conducted on a metastatic breast cancer cell line that is trastuzumab-resistant, HCC1954. At 25 μM, the screen yielded five hits that caused a nearly complete loss of cell viability. […] Next, the effect of metixene on different metastatic breast cancer cell lines was determined by measuring its IC50 in two HER2-positive cell lines (BT474 and HCC1954) and five triple-negative breast cancer cell lines (MDAMB-231-Br, HCC1806, HS578T, HCC3153, and SUM159) after 72 hours of treatment.

[5] = tested on: BT-474Br; test: Cell viability assay; assay type: cell-based
Protocol: (§2) Following the determination of an appropriate range for treatment of BCBM cells, the anti-cancer activity of metixene was evaluated in the brain metastatic HER2-positive BT-474Br and the triple-negative MDA-MB-231Br cell lines, using increasing concentrations of the drug at different time points.

[6] = tested on: MDA-MB-231Br; test: Cell viability assay; assay type: cell-based
Protocol: as §2

[7] = tested on: caspase 3/7 activity in BT-474Br; test: Caspase 3/7 assay; assay type: cell-based
[8] = tested on: caspase 3/7 activity in MDA-MB-231Br; test: Caspase 3/7 assay; assay type: cell-based
[9] = tested on: cleaved caspase-3 in BT-474Br; test: Cleaved caspase-3 protein expression; assay type: cell-based; settings: 24 hours
Source text: (§3) Next, whether metixene induces apoptotic cell death was investigated. […] Immunofluorescence analysis of metixene-treated BT-474Br and MDA-MB-231Br cells confirmed increased cleaved caspase-3 expression.

[10] = tested on: cleaved caspase-3 in MDA-MB-231Br; test: Cleaved caspase-3 protein expression; assay type: cell-based; settings: 24 hours
Source text: as §3

[11] = tested on: HCC1954 mammary fat pad tumors; test: Mammary fat pad tumor model; assay type: in vivo, nude mice
Protocol: (§4) All animal studies were completed per the National Institutes of Health guidelines on the care and use of laboratory animals for research purposes. The Institutional Committee on Animal Use at Northwestern University approved the protocols. Six- to eight-week-old athymic, immunodeficient (nu/nu) female mice were obtained from Charles River and maintained in a specific pathogen-free facility. For mammary gland injections, 1×10^6 HCC1954 cells were injected in the inguinal mammary fat pad of nude female mice. For the stereotactic intracranial injection, mice were placed in a stereotactic frame, and 5×10^5 BT-474Br cells were intracranially injected at a depth of 3 mm. For intracarotid artery injections, 1×10^6 MDA-MB-231Br cells were injected using a 31-gauge BD insulin syringe into the lumen of internal carotid artery.
The efficacy of metixene hydrochloride was evaluated using an in vivo model. HCC1954 cells were injected into the mammary fat pads of nude mice. After the formation and establishment of 5 mm breast tumors, mice were randomly divided into three groups whereby treatment was administered intraperitoneally: control (25% captisol); metixene (0.1 mg/kg); and metixene (1.0 mg/kg). The dosages were given three times a week. After 6 weeks, fat pad tumors were collected and analyzed (FIG. 2A).

[12] = tested on: BT-474Br intracranial tumors; test: Stereotactic intracranial model of BCBM; assay type: in vivo, nude mice
Protocol: as §4
After showing its anti-tumor effect in vivo, whether metixene could improve survival in different preclinical models of brain metastases was tested. A stereotactic intracranial injection of HER2-positive BT474-Br cells was performed in nude mice. After 10 days of recovery and tumor growth, the mice were divided into two groups that were treated intraperitoneally: control (25% captisol, n=7); and metixene (1.0 mg/kg, n=8). The dosages were given three times per week.

[13] = tested on: MDA-MB-231-Br brain metastases; test: Intracarotid model of multiple brain metastases; assay type: in vivo, nude mice; settings: 1.0 mg/kg intraperitoneally three times per week, p=0.037
Protocol: as §4
The model was established through a systemic intracarotid injection of triple-negative MDA-MB-231-Br cells in nude mice. Ten days after injection of tumor cells, mice were randomly divided into two groups and treated intraperitoneally with: control (25% captisol, n=5) and metixene (1.0 mg/kg, n=6). The treatments were given three times per week.

[14] = tested on: LC3 in MDA-MB-231-Br cells; test: LC3 conversion and autophagy flux; assay type: cell-based; settings: 10 μM, time course
Protocol: Next, MDA-MB-231-Br cells were treated with metixene for different durations to determine the mechanism of autophagic signaling in brain metastatic cells. […] Afterward, autophagy flux changes after ten minutes, one hour, and three hours of treatment were tested. LC3 II levels in control (untreated) cells, cells treated with chloroquine (25 μM), cells treated with metixene (10 μM), and cells treated with metixene and chloroquine were compared.

[15] = tested on: BT-474 and BT-474Br and MDA-MB-231 and MDA-MB-231Br; test: Autophagy induction with increasing concentration (LC3, SQSTM1/p62); assay type: cell-based
Protocol: (§5) The efficacy of metixene in inducing autophagy was tested in two primary breast and brain metastatic cancer cell lines, using BT-474 and BT-474Br and MDA-MB-231 and MDA-MB-231Br, respectively.

[16] = tested on: LC3 in BT-474Br cells; test: LC3 puncta immunofluorescence; assay type: cell-based; settings: 10 μM; P=0.015
Protocol: as §5

[17] = tested on: NDRG1 in MDA-MB-231Br; test: NDRG1 and pNDRG1 expression; assay type: cell-based; settings: dose-dependent treatment
Protocol: (§6) Upon further analysis of the RPPA data, the phosphorylation of N-Myc Downstream Regulated 1 (NDRG1) was noted to be relevant in four major pathways related to autophagy after 24 hours of metixene treatment. […] To confirm the role of NDRG1 in autophagy, NDRG1 knockout (KO) cells were generated using CRISPR Cas9 in MDA-MB-231Br cells. The cells were then treated with metixene in a dose-dependent manner and compared to cells transfected with a vector control.

[18] = tested on: NDRG1 KO MDA-MB-231Br cells; test: NDRG1 CRISPR Cas9 knockout versus vector control; assay type: cell-based
Protocol: as §6
(§7) The inventors then checked whether NDRG1 is further involved in the apoptotic cell death induced by metixene. A cell viability assay was conducted to check the effect of NDRG1 KO versus vector control upon metixene dose-dependent treatment. […] Upon NDRG1 KO, autophagy is completed, and the caspase-mediated pathway of apoptosis is not activated. This mechanism applies to primary brain cancers, such as glioblastoma (FIG. 4A), and other metastatic cancers to the brain, such as lung cancer (FIG. 4B) and melanoma (FIG. 4C).

[19] = tested on: CT2A glioma cells; test: Cell killing in glioma cells; assay type: cell-based; settings: increasing amount of metixene
Protocol: (§8) FIGS. 4A-4C. Metixene induces cell death in primary brain tumors and other metastatic cancers. (FIG. 4A) CT2A glioma cells were treated with increasing amount of metixene. […] (FIG. 4B) H2030Br lung cancer brain metastatic cells were treated with increasing amount of metixene. […] (FIG. 4C) WM3734 melanoma brain metastatic cells were treated with increasing amount of metixene.
as §7

[20] = tested on: H2030Br lung cancer brain metastatic cells; test: Cell killing in lung cancer brain metastatic cells; assay type: cell-based; settings: increasing amount of metixene
Protocol: as §8, §7

[21] = tested on: WM3734 melanoma brain metastatic cells; test: Cell killing in melanoma brain metastatic cells; assay type: cell-based; settings: increasing amount of metixene
Protocol: as §8, §7

[22] = tested on: α-synuclein; settings: cited from earlier work
[23] = dose-dependent treatment, Western blot

## CCN(CC)CCCC(C)Nc1ccnc2cc(Cl)ccc12 (stereo not drawn) [chloroquine]
[1]; vs controls
  toxicity: no increase in toxicity
[1]; controls 7.42 months, P=0.839
  overall survival: 10.2 months
[2]
  BBB permeability: low permeability of the BBB

## CN1CCCC(CC2c3ccccc3Sc3ccccc32)C1 (stereo not drawn) [metixene]
[3]
  reduction in cell viability: top hit in both screens
[4]
  loss of cell viability: top hit in both screens
[5]; 24 hours
  cell viability: significant reduction in cell viability
[5]; 48 hours, 15 μM
  cell viability: significantly decreased
[6]; 24 hours
  cell viability: significant reduction in cell viability
[6]; 48 hours, 5, 10, and 15 μM
  cell viability: significantly decreased
[7]; 24 hours
  caspase 3/7 activity: significant increase in caspase 3/7 activity
[7]; 48 hours, 15 μM
  caspase 3/7 activity: increased significantly
[8]; 24 hours, 10 μM and 15 μM
  caspase 3/7 activity: significant increase in caspase 3/7 activity
[8]; 48 hours, 15 μM
  caspase 3/7 activity: increased significantly
[9]
  cleaved caspase-3 protein levels: markedly increase
[10]
  cleaved caspase-3 protein levels: markedly increase
[11]; 0.1 mg/kg intraperitoneally three times a week, 6 weeks, P=0.0043
  tumor weight: decreased significantly
[11]; 0.1 mg/kg, p=0.001
  percent of cleaved caspase-3-positive cells in tumor sections: significant increase
[11]; 1.0 mg/kg intraperitoneally three times a week, 6 weeks, P=0.0004
  tumor weight: decreased significantly
[11]; 1.0 mg/kg, p=0.0002
  percent of cleaved caspase-3-positive cells in tumor sections: significant increase
[11]; 0.1 and 1.0 mg/kg intraperitoneally three times a week, 6 weeks, p<0.0001
  tumor volume: decreased significantly
[12]; 1.0 mg/kg intraperitoneally three times per week, control 52 days, p=0.0008
  median survival: 64 days
[12]; 1.0 mg/kg, after six weeks of treatment, vs controls, p=0.02
  luciferase signal in the brain: significant reduction
[13]; control 44 days
  median survival: 67 days
[13]
  increase in survival in comparison to controls: 52%
[14]
  conversion of LC3 I to LC3 II: increase as early as ten minutes
[15]; increasing concentration
  LC3 II levels: increased as the concentration of metixene increased
  ratio of LC3 II to I levels: trended upwards with increasing concentration
[15]; increasing concentration (FIG. 3F)
  SQSTM1/p62 levels: increased with increasing concentration
[16]
  LC3 puncta accumulation: significant increase in the accumulation of puncta
[17]
  expression of NDRG1 and pNDRG1: increased significantly in a dose-dependent manner
[18]; 10 μM (P=0.0078) and 15 μM (P<0.0001)
  apoptosis (caspase 3/7) in NDRG1 KO cells vs control: significantly reduced
[18]; 10 μM (P=0.0271) and 20 μM (P<0.0001)
  viability of NDRG1 KO cells vs control cells: significantly more viable
[18]; [23]
  LC3II levels in NDRG1 KO cells vs vector control: decreased significantly
  p62 levels in NDRG1 KO cells vs vector control: significant decrease
[19]
  concentration at which potent cell-killing effect begins: 5 µM
[20]
  concentration at which potent cell-killing effect begins: 10 µM
[21]
  concentration at which potent cell-killing effect begins: 10 µM
[2]
  BBB permeability: BBB permeable

## C=CCNC1=C2C[C@@H](C)C[C@H](OC)[C@H](O)[C@@H](C)/C=C(\C)[C@H](OC(N)=O)[C@@H](OC)/C=C\C=C(/C)C(=O)NC(=CC1=O)C2=O [17-AAG]
[22]
  reduction of α-synuclein in cells: effective in reducing α-synuclein in cells
